Experimental data published in article PMC5707448, “Luminescent platinum(II) complexes with self-assembly and anti-cancer properties: hydrogel, pH dependent emission color and sustained-release properties under physiological conditions” (Chemical Science, 2015).

Experiments:
HeLa cells [1] = experiment: Naphthol blue black (NBB) staining assay, HeLa; format: cell-based, human; details: 72 h incubation, read-out: Anti-proliferative activities towards HeLa cells (NBB staining assay)
Protocol: MTT assay Cancer cells (cell density = 4000-6000 cells/100µL) were seeded in a 96-well, flat-bottomed microtitre plate in growth medium (100 µL) and incubated at 37 °C under a 5% CO2 atmosphere for 24 h. Different concentrations of complexes were added and the plates were incubated for 72 h. […]
Naphthol blue black (NBB) staining assay After a total incubation time of 72 h, the medium was removed and a mixture of 50 µL of formaldehyde (3% in PBS) and 50 µL of NBB solution (0.05% NBB, 0.1 M sodium acetate, 9% acetic acid) was added. After further 30 min incubation, the mixture was removed and each well was washed with deionized water for 3 times. The plates were air-dried and 100 µL of NaOH (50 mg/mL) was added to solubilize the NBB-stained cells. The plates were […]
shaken for 1 h. […]

HeLa cells [2] = experiment: Sustained cytotoxicity in Transwell plates (MTT), HeLa in lower chamber; format: cell-based, human; details: upper chamber loaded for 1 h, total 72 h
Protocol: The sustained cytotoxicity of 1a-hydrogel towards HeLa cells was tested in double-chambered Transwell® 24-well plates (Fig. 8a). The plate has a semi-permeable membrane to separate the HeLa cells (lower chamber) from direct contact with hydrogel (upper chamber). After treatment of HeLa cells with 1a-hydrogel (100 μM) at different time intervals, the upper chambers were removed and the HeLa cells were further incubated in the absence of the hydrogel. After a total of 72 h, the cell survival percentage was quantified by MTT assay. […] Therefore, an acidic environment can stimulate a faster release of 1a from 1a-hydrogel resulting in a more rapid cytotoxic effect. As the microenvironment of tumor tissues is often acidic compared to that of normal tissues,[20]1a-hydrogel could potentially achieve selective cytotoxicity towards tumor cells under in vivo conditions. […]
(§1) orifice, stored in pre-cooled Hank’s Balanced Solution (HBSS), and then cut with small scissor into about 2-3 mm3. The specimens were then digested with 0.5% collagenase IV at 37 °C for 15 min, filtered through sterile 100 mesh filter screen. […]
(§2) MTT assay Cancer cells (cell density = 4000-6000 cells/100µL) were seeded in a 96-well, flat-bottomed microtitre plate in growth medium (100 µL) and incubated at 37 °C under a 5% CO2 atmosphere for 24 h. […] After further in dark at 37 °C overnight, the percentage of survival cells were determined with a microtitre plate reader at 590 nm.
Naphthol blue black (NBB) staining assay After a total incubation time of 72 h, the medium was removed and a mixture of 50 µL of formaldehyde (3% in PBS) and 50 µL of NBB solution (0.05% NBB, 0.1 M sodium acetate, 9% acetic acid) was added. […] The percentage of survival cells was determined with a microtitre plate […]
and 72 h). […] After further in dark at 37 °C overnight, the percentage of survival cells were determined with a microtitre plate reader at 590 nm. […]

HeLa = experiment: MTT cytotoxicity assay, HeLa; format: cell-based, human; details: 72 h treatment
Protocol: (§3) We then tested whether accumulation of platinum(II) complexes in lysosomes was associated with an increase in lysosomal membrane permeability (LMP). […] The cells were then treated with 1a or 2 at different concentrations.[17] […] Induction of LMP is a known cell death mechanism.[19] Therefore, we examined the cytotoxicity of the platinum(II) complexes towards different cancer cells by means of MTT (3-(4,5-dimethyl-2-thiazolyl)-2,5-diphenyltetrazolium bromide) (Table 1) and naphthol blue black (NBB) staining (Table S4 ^†) assays. […]
(§4) MTT assay Cancer cells (cell density = 4000-6000 cells/100µL) were seeded in a 96-well, flat-bottomed microtitre plate in growth medium (100 µL) and incubated at 37 °C under a 5% CO2 atmosphere for 24 h. Different concentrations of complexes were added and the plates were incubated for 72 h. After a total incubation time of 72 h, MTT in PBS solution (5 mg/mL, 10 µL) was added to each well. The plates were incubated at 37 °C under a 5% CO2 atmosphere for another 4 h, followed by adding 100 µL of sodium dodecyl sulfate (SDS, 10%) in diluted hydrochloric acid to each well. After further in dark at 37 °C overnight, the percentage of survival cells were determined with a microtitre plate reader at 590 nm. […]

breast cancer (MDA) = experiment: MTT cytotoxicity assay, MDA; format: cell-based; details: 72 h treatment
Protocol: as §3, §4

[3] = system: ovarian carcinoma (A2780); experiment: MTT cytotoxicity assay, A2780; format: cell-based; details: 72 h treatment
Protocol: as §3, §4

[4] = system: nasopharyngeal carcinoma (SUNE1); experiment: MTT cytotoxicity assay, SUNE1; format: cell-based; details: 72 h treatment
Protocol: as §3, §4

B16 melanoma = experiment: MTT cytotoxicity assay, B16; format: cell-based; details: 72 h treatment
Protocol: as §3, §4

[5] = system: hepatocellular carcinoma cells (HepG2); experiment: MTT cytotoxicity assay, HepG2; format: cell-based; details: 72 h treatment
Protocol: as §3, §4

[6] = system: non-tumorigenic immortalized liver cells (MIHA); experiment: MTT cytotoxicity assay, MIHA; format: cell-based; details: 72 h treatment
Protocol: as §3, §4

[7] = system: primary bladder cancer cells; experiment: MTT assay on primary bladder cancer cells; format: cell-based, human; details: 72 h incubation, read-out: Cytotoxic IC50, primary bladder cancer cells
Protocol: as §1, with “screen. The cells were collected by centrifugation at 700 g for 5 min, and then re-suspended in DMEM culture medium supplemented with penicillin (100 units/ml), streptomycin (100 μg/ml) and fungazone (0.25 μg/ml) at 37 °C in 95% air, 5% CO2, and cultured in” for “screen.”
The medium was replaced continuously every day. The interstitial cells were removed from the primary bladder cancer cells by trypsinization with 10-times diluted enzyme. The cells were used for drug screening when the confluence reached about 70%-80%. […]
as §2
Naphthol blue black (NBB) staining assay After a total incubation time of 72 h, the medium was removed and a mixture of 50 µL of formaldehyde (3% in PBS) and 50 µL of NBB solution (0.05% NBB, 0.1 M sodium acetate, 9% acetic acid) was added. […] The percentage of survival cells was determined with a microtitre plate

HeLa cells [8] = experiment: Soft agar colony formation assay; format: cell-based, human; details: 2 μM, 7 day
Protocol: HeLa cells (0.07 × 106) were seeded with 600 µL cultured medium in the lower chambers of the double-decked Transwell® 24-well plates and incubated at 37 °C under a 5% CO2 atmosphere for 24 h. A uniform scratch was introduced on each well using a […] and the images of the scratches were recorded (0 h).
Berberine@1a-hydrogel and 1a-hydrogel in 100 µL medium was separately introduced to the upper chamber. The upper chambers were detached from the lower chamber after 4 h or 8 h incubation time. The images of the scratches were captured after 24 h incubation time.
Soft agar colony formation assay
HeLa cells (1.5 × 105) were mixed with solvent control or 1a (2 µM) in 2 mL medium with 0.35% soft agar per well in a 6-well plate coated with medium with 0.7% soft agar. 1 mL medium containing solvent control or 1a (2 µM) was added to the soft agar after the soft agar was solidified. The imaging was captured after incubating the plate at 37 °C under a 5% CO2 atmosphere for 7 day.

HeLa cells [9] = experiment: Lysosomal membrane permeability by acridine orange staining; format: cell-based, human; details: 5 or 10 μM, 30 min, 37 °C
[10] = pH 7.4, 1a-hydrogel and cisplatin 100 μM

| SMILES | IC50 (HeLa cells [1]) | Cell survival (HeLa cells [2]; pH 6.0, 100 μM) | Cell survival (HeLa cells [2]; [10]) | IC50 (HeLa) | IC50 (breast cancer (MDA)) | IC50 [3] | IC50 [4] | IC50 (B16 melanoma) | IC50 [5] | IC50 [6] | IC50 [7] | Anchorage-independent colony formation (HeLa cells [8]) | Lysosomal membrane permeability (red fluorescence of acridine orange) (HeLa cells [9]) |
| --- | --- | --- | --- | --- | --- | --- | --- | --- | --- | --- | --- | --- | --- |
| N.N.[Cl][Pt][Cl] [Cisplatin] | 4.29 ± 0.36 µM | ~20% | ~20% |  |  |  |  |  |  |  |  |  |  |
| Cc1cccc(C)c1[N+]#[C][Pt-2]12[c]3ccccc3-c3cccc([n+]31)-c1cc[nH][n+]12.[Cl-] (centres unmarked) [Complex 1a, [Pt(C^N^N^pyr)(C?NR^1)]Cl] | 1.05 ± 0.06 µM |  | ~15% | 4.4 ± 0.6 µM | 1.6 ± 0.4 µM | 1.2 ± 0.1 µM | 3.5 ± 0.8 µM | 0.66 ± 0.04 µM | 1.3 ± 0.1 µM | 6.36 ± 0.15 µM | 6.9 µM | inhibited anchorage-independent colony formation | dose-dependent reductions of red fluorescence |
| Cc1cccc(C)c1[N+]#[C][Pt-2]12[c]3ccccc3-c3cccc([n+]31)-c1cc[nH][n+]12.O=S(=O)(O)C(F)(F)F (centres unmarked) [Complex 1b] | 0.9 ± 0.17 µM |  |  | 2.8 ± 0.2 µM | 2.1 ± 0.5 µM | 1.2 ± 0.1 µM | 2.8 ± 0.6 µM | 0.42 ± 0.02 µM | 1.7 ± 0.4 µM | 5.23 ± 0.62 µM |  |  |  |
| CCCC[N+]#[C][Pt-2]12[c]3ccccc3-c3cccc([n+]31)-c1cc[nH][n+]12.[Cl-] (centres unmarked) [Complex 2] | 2.28 ± 0.18 µM |  |  | 5.1 ± 1.1 µM | 5 ± 0.2 µM | 3.3 ± 0.2 µM | 4.4 ± 1 µM | 0.85 ± 0.07 µM | 4 ± 0.8 µM | 8.12 ± 1.27 µM |  |  | dose-dependent reductions of red fluorescence |
| COc1ccc([N+]#[C][Pt-2]23[c]4ccccc4-c4cccc([n+]42)-c2cc[nH][n+]23)cc1.O=S(=O)(O)C(F)(F)F (centres unmarked) [Complex 3] | 1.98 ± 0.21 µM |  |  | 3.8 ± 0.5 µM | 4.2 ± 1 µM | 2.7 ± 0.1 µM | 3.9 ± 0.7 µM | 2.6 ± 0.2 µM | 2.7 ± 0.2 µM | 9.56 ± 2.15 µM |  |  |  |
| O=S(=O)(O)C(F)(F)F.[C](#[N+]c1ccc2ccccc2c1)[Pt-2]12[c]3ccccc3-c3cccc([n+]31)-c1cc[nH][n+]12 (centres unmarked) [Complex 4] | 3.52 ± 0.89 µM |  |  | 8.3 ± 0.9 µM | 7.4 ± 0.5 µM | 5 ± 0.2 µM | 7.9 ± 1.3 µM | 3 ± 0.3 µM | 6.2 ± 0.6 µM | 13.5 ± 2.12 µM |  |  |  |
| COCCOCCOc1ccc([N+]#[C][Pt-2]23[c]4ccccc4-c4cccc([n+]42)-c2cc[nH][n+]23)cc1.O=S(=O)(O)C(F)(F)F (centres unmarked) [Complex 5] | 9.47 ± 1.92 µM |  |  | 14.4 ± 3.5 µM | 8.3 ± 1.6 µM | 11.7 ± 2.1 µM | 12.3 ± 4.2 µM | 6.2 ± 0.5 µM | 9 ± 1.6 µM | 20.2 ± 2.92 µM |  |  |  |
